{
  "source": "patent US6319951A",
  "about": "“Use of 3-amino-4-hydroxybenzoic acid for the treatment of retroviral infections” (priority 1996, dated 2001)",
  "origin": "cited, not measured here",
  "key": {"HIV [1]": {"system": "HIV", "conditions": "reported for AZT; cited from earlier work"}, "HIV [2]": {"system": "HIV", "conditions": "in presence of normal serum iron; cited from earlier work"}},
  "data": [
    {"smiles": "Cc1cn([C@H]2C[C@H](N=[N+]=[N-])[C@@H](CO)O2)c(=O)[nH]c1=O", "note": "[AZT]", "values": [
      {"measurement": "reported equivalent increase in CD4", "setting": "HIV [1]", "result": 81},
      {"measurement": "bone marrow depression and anaemia", "setting": "HIV [2]", "result": "causes bone marrow depression and anaemia in presence of normal serum iron"}
    ]}
  ]
}
